Assay [1] concerns the target T1, Eukaryotic elongation factor 2 kinase (Homo sapiens) (UniProt O00418).
T1 sequence (whole entry): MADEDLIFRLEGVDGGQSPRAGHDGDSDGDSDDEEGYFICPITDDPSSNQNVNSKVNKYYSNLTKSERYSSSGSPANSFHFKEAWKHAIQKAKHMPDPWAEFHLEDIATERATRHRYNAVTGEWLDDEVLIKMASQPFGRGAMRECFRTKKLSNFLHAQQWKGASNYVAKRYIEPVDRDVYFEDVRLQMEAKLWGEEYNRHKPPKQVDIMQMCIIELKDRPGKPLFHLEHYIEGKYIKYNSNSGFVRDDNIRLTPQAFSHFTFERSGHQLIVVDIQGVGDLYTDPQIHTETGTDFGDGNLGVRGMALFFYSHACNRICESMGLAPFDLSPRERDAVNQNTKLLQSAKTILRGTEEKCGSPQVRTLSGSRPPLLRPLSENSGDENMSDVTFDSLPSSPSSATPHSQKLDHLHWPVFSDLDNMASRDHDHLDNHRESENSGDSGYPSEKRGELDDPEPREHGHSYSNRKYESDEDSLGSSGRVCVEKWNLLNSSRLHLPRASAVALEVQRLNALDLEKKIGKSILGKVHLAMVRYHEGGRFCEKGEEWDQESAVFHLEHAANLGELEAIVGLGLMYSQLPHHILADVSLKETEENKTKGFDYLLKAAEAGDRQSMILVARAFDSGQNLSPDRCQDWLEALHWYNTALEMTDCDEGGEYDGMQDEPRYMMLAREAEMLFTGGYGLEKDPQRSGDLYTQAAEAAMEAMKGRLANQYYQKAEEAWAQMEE
Description: Selectivity interaction (Kinase panel (Z-LYTE Assay)) EUB0001632a EEF2K. To be noted: at 10 µM.

Assay [2] has as its target T2, Aurora kinase A (Homo sapiens) (UniProt O14965).
T2 sequence (whole entry): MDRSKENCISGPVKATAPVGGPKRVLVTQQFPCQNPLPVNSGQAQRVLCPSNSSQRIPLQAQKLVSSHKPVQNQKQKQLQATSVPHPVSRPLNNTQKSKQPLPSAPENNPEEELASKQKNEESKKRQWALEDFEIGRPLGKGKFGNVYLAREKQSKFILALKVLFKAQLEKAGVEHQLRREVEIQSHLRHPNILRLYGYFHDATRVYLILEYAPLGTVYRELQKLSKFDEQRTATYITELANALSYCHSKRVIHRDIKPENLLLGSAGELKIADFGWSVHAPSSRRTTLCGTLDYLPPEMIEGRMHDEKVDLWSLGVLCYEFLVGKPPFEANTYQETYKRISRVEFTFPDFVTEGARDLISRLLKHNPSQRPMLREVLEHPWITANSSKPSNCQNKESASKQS
Nature of the assay: Selectivity interaction (Kinase panel (KiNativ target engagement assay in Jurkat cells)) EUB0001635a STK6. Format: cell-based. Particulars: at 1 µM.

The target of assay [3] is Casein kinase I isoform gamma-3 (Homo sapiens) (UniProt Q9Y6M4). Particulars: at 10 µM.
Casein kinase I isoform gamma-3 (Homo sapiens), sequence (Q9Y6M4 whole entry, looked up, canonical isoform): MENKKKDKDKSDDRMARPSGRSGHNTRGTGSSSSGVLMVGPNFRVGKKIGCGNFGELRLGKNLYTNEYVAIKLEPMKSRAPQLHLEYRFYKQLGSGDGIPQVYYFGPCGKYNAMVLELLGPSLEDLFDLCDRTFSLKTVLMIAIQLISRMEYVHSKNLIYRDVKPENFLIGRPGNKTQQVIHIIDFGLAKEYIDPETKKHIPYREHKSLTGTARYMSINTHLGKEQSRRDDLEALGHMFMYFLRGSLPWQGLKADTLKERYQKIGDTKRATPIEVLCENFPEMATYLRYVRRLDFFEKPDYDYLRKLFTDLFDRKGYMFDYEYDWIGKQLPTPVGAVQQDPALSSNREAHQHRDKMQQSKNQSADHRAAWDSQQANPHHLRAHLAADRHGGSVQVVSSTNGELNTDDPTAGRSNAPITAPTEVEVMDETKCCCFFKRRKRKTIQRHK
For assay [4], the target named is Mitogen-activated protein kinase kinase kinase 20 (Homo sapiens) (UniProt Q9NYL2). Particulars: at 10 µM.
Mitogen-activated protein kinase kinase kinase 20 (Homo sapiens), sequence (Q9NYL2 2-800 limits assumed): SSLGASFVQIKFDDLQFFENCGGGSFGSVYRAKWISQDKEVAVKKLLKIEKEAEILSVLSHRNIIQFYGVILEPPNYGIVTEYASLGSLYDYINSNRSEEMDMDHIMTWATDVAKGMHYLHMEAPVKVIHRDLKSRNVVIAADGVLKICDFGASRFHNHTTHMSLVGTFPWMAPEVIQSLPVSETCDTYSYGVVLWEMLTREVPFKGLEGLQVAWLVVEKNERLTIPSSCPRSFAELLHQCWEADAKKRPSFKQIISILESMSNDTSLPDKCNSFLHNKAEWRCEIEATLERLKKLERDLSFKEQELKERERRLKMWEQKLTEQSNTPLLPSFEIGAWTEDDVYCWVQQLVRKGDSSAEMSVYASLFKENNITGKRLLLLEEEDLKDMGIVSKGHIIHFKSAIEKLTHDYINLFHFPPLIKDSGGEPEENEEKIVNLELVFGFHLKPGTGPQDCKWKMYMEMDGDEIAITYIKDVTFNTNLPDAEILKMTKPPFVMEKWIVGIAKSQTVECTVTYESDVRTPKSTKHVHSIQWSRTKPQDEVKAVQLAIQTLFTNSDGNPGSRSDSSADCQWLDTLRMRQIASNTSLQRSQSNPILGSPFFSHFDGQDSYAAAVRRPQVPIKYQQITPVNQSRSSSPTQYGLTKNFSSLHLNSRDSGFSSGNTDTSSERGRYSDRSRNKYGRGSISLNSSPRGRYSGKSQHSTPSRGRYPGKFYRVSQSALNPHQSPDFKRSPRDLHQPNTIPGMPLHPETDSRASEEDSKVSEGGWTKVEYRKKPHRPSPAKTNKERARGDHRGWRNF
Assay [5] has as its target Mitogen-activated protein kinase 11 (Homo sapiens) (UniProt Q15759). Description: Selectivity interaction (KinomeScan (DiscoverX)) EUB0000666a MAPK11. To be noted: at 10 µM.
In assay [6] the target is Cyclin-dependent kinase 3 (Homo sapiens) (UniProt Q00526). Description: Selectivity interaction (KinomeScan (DiscoverX)) EUB0000655a CDK3. To be noted: at 10 µM.
Cyclin-dependent kinase 3 (Homo sapiens), sequence (Q00526 whole entry, looked up): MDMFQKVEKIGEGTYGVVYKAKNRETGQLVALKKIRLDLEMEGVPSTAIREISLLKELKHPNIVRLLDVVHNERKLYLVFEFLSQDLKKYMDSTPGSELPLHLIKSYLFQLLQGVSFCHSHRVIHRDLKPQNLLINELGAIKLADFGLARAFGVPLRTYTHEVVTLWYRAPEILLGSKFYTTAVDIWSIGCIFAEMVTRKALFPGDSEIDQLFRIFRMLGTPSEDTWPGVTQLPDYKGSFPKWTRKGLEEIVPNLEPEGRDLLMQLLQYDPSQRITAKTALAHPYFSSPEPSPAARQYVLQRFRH
Assay [7] concerns the target Serine/threonine-protein kinase PAK 6 (Homo sapiens) (UniProt Q9NQU5). Nature of the assay: Selectivity interaction (KinomeScan (DiscoverX)) EUB0001079a PAK6. To be noted: at 1 µM.
In assay [8] the target is Tyrosine-protein kinase JAK1 (Homo sapiens, UniProt P23458). Nature of the assay: Selectivity interaction (ActivX KiNativ screen (kinase selectivity in THP-1 cell lysates)) EUB0000639a JAK1. The assay is classed as subcellular. Particulars: lysate, at 0.04 µM.
Tyrosine-protein kinase JAK1, sequence (P23458 whole entry): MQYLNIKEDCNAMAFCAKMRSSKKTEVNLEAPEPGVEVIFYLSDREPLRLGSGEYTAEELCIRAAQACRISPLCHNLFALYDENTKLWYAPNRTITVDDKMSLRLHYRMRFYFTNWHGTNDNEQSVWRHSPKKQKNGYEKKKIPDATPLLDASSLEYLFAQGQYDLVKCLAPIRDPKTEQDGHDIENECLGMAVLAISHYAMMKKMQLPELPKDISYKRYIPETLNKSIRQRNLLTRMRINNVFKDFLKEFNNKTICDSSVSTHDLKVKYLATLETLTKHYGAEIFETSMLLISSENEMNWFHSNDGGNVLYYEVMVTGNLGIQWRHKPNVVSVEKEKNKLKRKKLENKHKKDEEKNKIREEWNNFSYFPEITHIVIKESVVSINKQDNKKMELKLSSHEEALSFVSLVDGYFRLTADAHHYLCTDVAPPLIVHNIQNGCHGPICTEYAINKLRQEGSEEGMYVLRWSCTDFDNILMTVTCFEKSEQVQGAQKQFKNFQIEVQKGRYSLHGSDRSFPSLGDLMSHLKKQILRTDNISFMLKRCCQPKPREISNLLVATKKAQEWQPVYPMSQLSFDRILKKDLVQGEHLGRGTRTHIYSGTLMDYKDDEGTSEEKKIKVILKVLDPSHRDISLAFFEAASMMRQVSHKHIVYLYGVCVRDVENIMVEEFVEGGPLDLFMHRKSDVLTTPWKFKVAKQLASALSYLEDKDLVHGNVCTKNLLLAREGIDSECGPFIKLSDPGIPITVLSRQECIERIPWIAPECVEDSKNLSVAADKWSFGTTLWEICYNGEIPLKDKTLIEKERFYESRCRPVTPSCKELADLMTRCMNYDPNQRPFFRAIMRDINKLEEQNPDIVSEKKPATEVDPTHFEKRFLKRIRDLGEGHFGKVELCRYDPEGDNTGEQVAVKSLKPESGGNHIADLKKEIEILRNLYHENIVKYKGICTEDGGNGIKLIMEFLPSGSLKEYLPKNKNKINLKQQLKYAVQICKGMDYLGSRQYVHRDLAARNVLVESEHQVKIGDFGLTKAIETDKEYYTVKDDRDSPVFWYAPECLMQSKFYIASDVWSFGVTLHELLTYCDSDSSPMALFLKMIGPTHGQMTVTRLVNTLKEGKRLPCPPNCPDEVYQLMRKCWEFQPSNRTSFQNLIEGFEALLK
The target of assay [9] is T3, Dual specificity mitogen-activated protein kinase kinase 6 (Homo sapiens) (UniProt P52564).
T3 sequence (whole entry): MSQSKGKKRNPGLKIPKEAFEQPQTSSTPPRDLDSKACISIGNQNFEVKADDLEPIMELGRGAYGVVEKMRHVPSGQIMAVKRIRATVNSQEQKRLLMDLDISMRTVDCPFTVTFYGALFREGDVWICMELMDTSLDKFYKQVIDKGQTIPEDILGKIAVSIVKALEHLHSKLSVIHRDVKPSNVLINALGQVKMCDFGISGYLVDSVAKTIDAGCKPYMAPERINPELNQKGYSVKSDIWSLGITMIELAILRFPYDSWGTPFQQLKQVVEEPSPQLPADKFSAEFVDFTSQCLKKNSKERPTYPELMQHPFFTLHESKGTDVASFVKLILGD
Description: Selectivity interaction (ActivX KiNativ screen (kinase selectivity in THP-1 cell lysates)) EUB0000639a MAP2K6. The assay is classed as subcellular. Particulars: lysate, at 1 µM.

Assay [10] addresses ATP-sensitive inward rectifier potassium channel 11 (Homo sapiens) (UniProt Q14654). Description: Selectivity interaction (Eurofins CEREP Diversity Profile (receptors and ion channels)) EUB0000279b KCNJ11. Particulars: at 10 µM.
The target in assay [11] is Serine/threonine-protein kinase 26 (Homo sapiens, UniProt Q9P289). Description: Selectivity interaction (Upstate Kinase Profiler service (Millipore)) EUB0000056c STK26. To be noted: at 1 µM.
Serine/threonine-protein kinase 26, sequence (Q9P289 2-416 limits assumed): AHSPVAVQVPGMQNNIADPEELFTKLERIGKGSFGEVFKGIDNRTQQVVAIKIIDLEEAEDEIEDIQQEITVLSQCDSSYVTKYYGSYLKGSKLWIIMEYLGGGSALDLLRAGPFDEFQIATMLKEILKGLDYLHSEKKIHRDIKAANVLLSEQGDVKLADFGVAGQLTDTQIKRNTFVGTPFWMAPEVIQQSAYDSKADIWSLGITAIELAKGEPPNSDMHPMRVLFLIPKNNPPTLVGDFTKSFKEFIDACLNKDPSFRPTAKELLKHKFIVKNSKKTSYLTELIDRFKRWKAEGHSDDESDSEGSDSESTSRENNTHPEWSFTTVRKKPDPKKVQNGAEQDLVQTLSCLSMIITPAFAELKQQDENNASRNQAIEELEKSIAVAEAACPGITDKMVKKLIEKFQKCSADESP

Structures are written as SMILES.

ATP-sensitive inward rectifier potassium channel 11 (Homo sapiens), sequence (Q14654 whole entry): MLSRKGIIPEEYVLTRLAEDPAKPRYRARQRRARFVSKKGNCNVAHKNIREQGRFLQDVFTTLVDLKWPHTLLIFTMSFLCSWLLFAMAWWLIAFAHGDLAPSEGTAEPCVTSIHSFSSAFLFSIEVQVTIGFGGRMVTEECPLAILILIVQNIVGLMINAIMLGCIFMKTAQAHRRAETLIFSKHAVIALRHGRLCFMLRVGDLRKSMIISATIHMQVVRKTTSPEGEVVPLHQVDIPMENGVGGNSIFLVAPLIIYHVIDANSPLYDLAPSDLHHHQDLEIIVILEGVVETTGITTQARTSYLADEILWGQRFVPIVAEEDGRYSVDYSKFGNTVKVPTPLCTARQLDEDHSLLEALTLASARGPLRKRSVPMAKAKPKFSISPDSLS
Serine/threonine-protein kinase PAK 6 (Homo sapiens), sequence (Q9NQU5 whole entry, looked up): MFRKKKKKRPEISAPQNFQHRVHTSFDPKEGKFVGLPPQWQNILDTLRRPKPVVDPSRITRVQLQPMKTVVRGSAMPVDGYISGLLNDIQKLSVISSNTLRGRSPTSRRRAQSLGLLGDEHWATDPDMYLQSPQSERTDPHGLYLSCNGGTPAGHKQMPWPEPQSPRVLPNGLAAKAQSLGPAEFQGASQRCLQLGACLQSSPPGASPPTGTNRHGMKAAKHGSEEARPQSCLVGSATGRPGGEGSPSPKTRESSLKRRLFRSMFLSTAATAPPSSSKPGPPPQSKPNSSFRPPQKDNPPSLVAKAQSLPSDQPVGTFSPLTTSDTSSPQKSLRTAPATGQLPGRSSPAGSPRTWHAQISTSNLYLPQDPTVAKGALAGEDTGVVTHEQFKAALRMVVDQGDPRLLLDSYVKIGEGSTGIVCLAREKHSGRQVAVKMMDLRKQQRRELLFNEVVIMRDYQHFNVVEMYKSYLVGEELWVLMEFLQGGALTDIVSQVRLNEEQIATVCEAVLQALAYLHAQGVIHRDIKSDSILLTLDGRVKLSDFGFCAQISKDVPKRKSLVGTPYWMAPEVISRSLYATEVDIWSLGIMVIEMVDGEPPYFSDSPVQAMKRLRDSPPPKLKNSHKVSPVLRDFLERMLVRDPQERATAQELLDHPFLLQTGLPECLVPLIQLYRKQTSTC
Mitogen-activated protein kinase 11 (Homo sapiens), sequence (Q15759 whole entry): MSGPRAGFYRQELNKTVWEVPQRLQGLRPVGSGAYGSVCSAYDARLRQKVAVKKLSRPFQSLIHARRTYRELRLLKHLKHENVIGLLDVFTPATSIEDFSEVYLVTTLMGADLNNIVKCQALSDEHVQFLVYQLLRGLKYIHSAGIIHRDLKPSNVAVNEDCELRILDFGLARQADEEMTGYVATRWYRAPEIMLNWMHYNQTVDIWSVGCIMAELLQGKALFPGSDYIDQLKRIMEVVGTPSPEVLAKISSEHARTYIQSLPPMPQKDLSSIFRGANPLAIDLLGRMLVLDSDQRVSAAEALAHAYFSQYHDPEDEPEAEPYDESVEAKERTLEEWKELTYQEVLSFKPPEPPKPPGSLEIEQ

In turn, `Cn1cc(-n2cnc3c(NCc4nc5cc(Cl)c(Cl)cc5[nH]4)nc(N4CCOCC4)nc32)cn1` displayed a % of control in assay [1] of 1.73%.
`C=CC(=O)Nc1ccc(C(=O)Nc2[nH]nc3c2CN(C(=O)N[C@H](CN(C)C)c2ccccc2)C3(C)C)cc1` registered a % of engagement in assay [2] of 14.1%.
In the case of `Cc1cc([C@@H](C)Nc2ccccc2C(=O)O)c2nc(N3CCOCC3)cc(=O)n2c1` [AZD-6482], the % of control in [3] and in assay [4] was 100% in each case.
On to `O=C(NOC[C@H](O)CO)c1ccc(F)c(F)c1Nc1ccc(I)cc1F`, for which the % of control in assay [5] was found to be 100%.
In assay [6], `CN(C)CCOc1ccc(-c2nc(-c3ccncc3)c(-c3ccc4c(c3)CC/C4=N\O)[nH]2)cc1` registered a % of control of 98%.
On to `Nc1cnc(N2CCc3cc(S(=O)(=O)Nc4c(F)cc(Cl)cc4F)cc(N4CCCC4=O)c32)nc1` [TP-020n], for which the % of control in assay [7] worked out at 90%.
In the case of `CC[C@@H]1[C@H](F)C(=O)N[C@@H]1COc1nccc2cc(C(N)=O)c(OC)cc12` [ZIMLOVISERTIB], the % of inhibition in [8] amounted to 14.8%; in assay [9] it was 17%.
Compound `CC(=O)c1cc(-c2ccccc2OCC2CC2)c2ncccn12` displayed a % of control in assay [10] of 105%.
Regarding `Cc1ccc(-c2ccc3c(ccc4sc5c(c43)NC[C@@H](C)NC5=O)n2)cn1`, the % of inhibition in [11] is 15%.

The record behind these values is ChEMBL document CHEMBL5465560, “Selectivity Literature for EUbOPEN Chemogenomic Library” (2024).
